Test results taken from US8455397B2, “Penoxsulam as a turfgrass, vineyard and orchard floor herbicide” (Dow AgroSciences, LLC, priority 2005, dated 2013).

How the values were obtained:
[1] = test system: yellow nutsedge (CYPES); experiment: Pre-emergence weed nursery field study; assay type: in vivo, Cypres esculentus L.; conditions: weed nursery in the field, 27 Days After Application
Experimental: Field studies were conducted in a non-fumigated weed nursery trial. Weed species were planted in single strips with a row planter at 36 centimeter spacing. Plot size was 3.05×9.2 meters, 4 replicate plots per treatment. Weed species were seeded at appropriate depths and later the same day pre-emergent applications were made to the soil surface. Liquid applications were made using a backpack sprayer calibrated to deliver 187 liters per hectare (L/ha). Applications were made in Fresno, Calif. in June. Sprinkler irrigation was applied at regular intervals throughout study period. Control of each weed species in the study site was made 4 weeks after treatment. Control was determined visually by comparing treated and untreated weeds and scored on a 0 to 100 percent scale where 0 corresponds to no control and 100 corresponds to complete kill or no emergence.

[2] = test system: broadleaf weeds and sedges; experiment: Weed control in turfgrass and vine and orchard floors (general statement); assay type: in vivo; conditions: TRFRE, PLALA, TAROF, PLAMA, GLEHE, LESST, HYDSS, DIQVI, BELPE, CYPES
[3] = test system: common mallow (MALNE); experiment: Pre-emergence orchard floor weeds, greenhouse study; assay type: in vivo, Malva neglecta; conditions: 28 Days After Application
Experimental: Greenhouse studies were conducted by seeding species in a loam soil and applying the herbicides to the soil surface using a Cornwall 5 milliliter glass syringe fitted with a TeeJet TN-3 nozzle on an area basis Immediately following herbicide application the pots were irrigated over the top to move the herbicides into the seeding zone. Pots were kept well irrigated throughout the trial. A percent visual weed control assessment was taken 4 weeks after application. Control was determined visually by comparing treated and untreated pots and scored on a 0 to 100 percent scale where 0 corresponds to no control and 100 corresponds to complete kill, or no emergence.

COc1cnc(OC)n2nc(NS(=O)(=O)c3c(OCC(F)F)cccc3C(F)(F)F)nc12 [Penoxsulam, 2-(2,2-difluoroethoxy)-N-(5,8-dimethoxy[1,2,4]triazolo[1,5-c]-pyrimidin-2-yl)-6-(trifluoromethyl)benzenesulfonamide]
Pre-emergent Percent Mean Control ([1]; 8.8 gai/Ha): 69%
Pre-emergent Percent Mean Control ([1]; 17.5 gai/Ha): 81%
Pre-emergent Percent Mean Control ([1]; 35 gai/Ha): 88%
Pre-emergent Percent Mean Control ([1]; 70 gai/Ha): 94%
effectiveness against most important weeds [2]: particularly effective
Pre-emergent Percent Mean Control ([3]; 8.8 gai/Ha): 60%
Pre-emergent Percent Mean Control ([3]; 17.5 gai/Ha): 92%
Pre-emergent Percent Mean Control ([3]; 35 gai/Ha): 95%
Pre-emergent Percent Mean Control ([3]; 70 gai/Ha): 98%
